# Legend:
# [1] = tested on: HT-29 xenograft; settings: irinotecan control
# Procedure: Varying doses of the unlabeled PEG~(SN-38)4 conjugate are injected into animals.
# [2] = tested on: MX-1 tumor xenografts; assay: Efficacy of PLX038A (PEG-SN38) in mice bearing MX-1 tumor xenografts; settings: 137 µmole/kg irinotecan single dose
# [3] = tested on: HT29 tumor xenografts; assay: Levels of conjugate and released SN-38 in tumor versus plasma, HT29 xenograft-bearing rats
# [4] = Plasma concentration of PLX038, released SN-38 and SN-38G in rats bearing HT29 tumor xenografts (HPLC with fluorescence monitoring); type: in vivo; settings: rat with HT29 xenograft, ~200 mg/kg PLX038, conjugate
# [5] = 14 days post-dosing, single 200 mg/kg PLX038
# [6] = administered dose 200 mg/kg PLX038
Structure (SMILES),tumor inhibition relative to PLX038 [1],"gastrointestinal (GI) toxicity ([1]; rat HT-29 xenograft model, PLX038 single 200 mg/kg)",effect on tumor growth compared with vehicle [2],"accumulation in tumors [3, 5]","serum levels [3, 5]","concentration of released SN-38 in the tumor [3, 6]","released SN-38 in the circulation [3, 6]",conjugate / free drug in the plasma ([3]; lower dosages of PLX038),conjugate / free drug in the tumor ([3]; lower dosages of PLX038),half-life in plasma / systemic circulation [4]
CCc1c2c(nc3ccc(OC(=O)N4CCC(N5CCCCC5)CC4)cc13)-c1cc3c(c(=O)n1C2)COC(=O)[C@]3(O)CC [irinotecan],near-equal tumor inhibition,significant GI toxicity,only somewhat better than vehicle,,,,,,,
CCc1c2c(nc3ccc(O)cc13)-c1cc3c(c(=O)n1C2)COC(=O)[C@]3(O)CC [SN-38],,,,high accumulation,undetectable,about 80 pm/g,barely detectable,not detected in the plasma,significant concentrations,50 h

# Reference: US20230321286A1, “PROTOCOL FOR MINIMIZING TOXICITY OF COMBINATION DOSAGES AND IMAGING AGENT FOR VERIFICATION” (priority 2018, published 2023)
